Reference: the NIST ThermoML archive (doi:10.1016/j.jct.2013.10.023)
± gives the expanded uncertainty stated by the source.

Experiments:
[1] = 101 kPa, Liquid; for viscosity: Capillary tube (Ostwald / Ubbelohde) method; for mass density: Vibrating tube method
[2] = xn = mol fraction of the nth substance listed; details: 101 kPa, Liquid, x2 = 0; for viscosity: Capillary tube (Ostwald / Ubbelohde) method; for mass density: Vibrating tube method

SMILES	viscosity ([1]; 298.15 K)	mass density ([1]; 298.15 K)	viscosity ([1]; 308.15 K)	mass density ([1]; 308.15 K)	viscosity ([1]; 318.15 K)	mass density ([1]; 318.15 K)	viscosity ([1]; 328.15 K)	mass density ([1]; 328.15 K)	viscosity ([1]; 338.15 K)	mass density ([1]; 338.15 K)	viscosity ([1]; 348.15 K)	mass density ([1]; 348.15 K)	viscosity ([1]; 358.15 K)	mass density ([1]; 358.15 K)	other results
CC(=O)[O-].CCn1cc[n+](C)c1 [1-ethyl-3-methylimidazolium acetate]	138.4 ± 3.6 mPa·s	1099.04 ± 10 kg/m3	76.1 ± 1.6 mPa·s	1092.95 ± 10 kg/m3	45.9 ± 0.96 mPa·s	1086.88 ± 10 kg/m3	30.1 ± 0.63 mPa·s	1080.86 ± 10 kg/m3	20.8 ± 0.44 mPa·s	1074.86 ± 10 kg/m3	14.28 ± 0.3 mPa·s	1071.37 ± 10 kg/m3	11.53 ± 0.24 mPa·s	1063.03 ± 10 kg/m3	–
CCOS(=O)(=O)[O-].CCn1cc[n+](C)c1 [1-ethyl-3-methylimidazolium ethyl sulfate]	96.62 ± 2.2 mPa·s	1238.68 ± 10 kg/m3	60.41 ± 1.3 mPa·s	1231.92 ± 10 kg/m3	39.95 ± 0.84 mPa·s	1225.2 ± 10 kg/m3	28.91 ± 0.61 mPa·s	1218.51 ± 10 kg/m3	20.63 ± 0.43 mPa·s	1211.88 ± 10 kg/m3	15.66 ± 0.33 mPa·s	1208.19 ± 10 kg/m3	12.23 ± 0.26 mPa·s	1198.75 ± 10 kg/m3	–
CCOS(=O)(=O)[O-].CCn1cc[n+](C)c1 [1-ethyl-3-methylimidazolium ethyl sulfate] + CC(=O)[O-].CCn1cc[n+](C)c1	–	–	–	–	–	–	–	–	–	–	–	–	–	–	viscosity ([2]; 298.15 K): 96.62 ± 2.2 mPa·s; mass density ([2]; 298.15 K): 1238.68 ± 10 kg/m3; viscosity ([2]; 308.15 K): 60.41 ± 1.3 mPa·s; mass density ([2]; 308.15 K): 1231.92 ± 10 kg/m3; viscosity ([2]; 318.15 K): 39.95 ± 0.84 mPa·s; mass density ([2]; 318.15 K): 1225.2 ± 10 kg/m3; viscosity ([2]; 328.15 K): 28.91 ± 0.61 mPa·s; mass density ([2]; 328.15 K): 1218.51 ± 10 kg/m3; viscosity ([2]; 338.15 K): 20.63 ± 0.43 mPa·s; mass density ([2]; 338.15 K): 1211.88 ± 10 kg/m3; viscosity ([2]; 348.15 K): 15.66 ± 0.33 mPa·s; mass density ([2]; 348.15 K): 1208.19 ± 10 kg/m3; viscosity ([2]; 358.15 K): 12.23 ± 0.26 mPa·s; mass density ([2]; 358.15 K): 1198.75 ± 10 kg/m3
